ChEMBL document CHEMBL3507680, “University of Dundee, Gates Library screen for HepG2 cell viability”

Test: Human HepG2 cell viability assay in 384 well format
Type: toxicity, cell-based
Set-up: dose 125 nL, time 70.5 hour; cytotoxicity at 70.5 h: concentration not given beside the values
Conditions: HepG2 cells, read-out: Inhibition

Row | SMILES | cytotoxicity at 70.5 h [%]
1 | CCOCC1CN(C(=O)c2cnccn2)Cc2cnn(CC3CC3)c21 (configuration not stated) | -10.4
2 | COCCN1CCC(NC(=O)C/C=C/c2ccc(C(C)C)cc2)CC1 | 2.87
3 | CN(C)CCNC(=O)c1cc(-c2cnc(N(C)C)nc2)cn1CC1CC1 | -6.44
4 | COc1cc(-n2ccnc2-c2ccc(C(=O)O)s2)ccc1NC(C)=O | -7.67
5 | CCCC1CCCN(C(=O)Nc2cccnc2OC)CC1 (configuration not stated) | 19.4
6 | O=C(Cn1nc(C(F)(F)F)c(Br)c1C1CC1)N1CCOCC1 | -5.88
7 | c1nc(N2CCCCC2Cn2cncn2)c2ccsc2n1 (configuration not stated) | 14.7
8 | NC(=O)CN1CCCC(C(=O)N2CCC(O)(Cc3ccccc3)CC2)C1 (configuration not stated) | -9.61
9 | CCN(CC(=O)Nc1c(C)n[nH]c1C)CC(O)c1ccc(C)cc1 (configuration not stated) | 13.8
10 | c1cnnc(N2CCCC2CNCc2nc(-c3ccsc3)no2)c1 (configuration not stated) | -20.3
11 | Cc1nccc(-c2cccc(NCC(=O)N3CCCCCCC3)c2)n1 | 17.3
12 | CN(Cc1cc2n(n1)CCN(C(=O)[C@H]1CCCO1)C2)Cc1nccs1 | 46.3
13 | CC(C)CC(NC(=O)C1=CCCC1)C(=O)N1CCC(CO)CC1 (configuration not stated) | 0.304
14 | CN(Cc1ccccc1NCc1ncc[nH]1)C(=O)c1cccs1 | 14
15 | CC(C)C(C)NC(=O)c1cc(Br)c2c(c1)OCCO2 (configuration not stated) | -4.14
16 | CNc1ncc(C(=O)N2CCCC(CO)(CCCOC)C2)cn1 (configuration not stated) | 4.14
17 | CCN(c1ccc(C(=O)N(Cc2cnn(C)c2)C(C)C)cn1)C(C)C | -24.7
18 | O=c1cc(Cn2cncn2)nc2n1CCCN(CC1CC1)C2 | -33
19 | CS(=O)(=O)c1ccc(C(=O)N2CCCC(n3cncn3)C2)o1 (configuration not stated) | 21.1
20 | Cc1cc(F)ccc1S(=O)(=O)N1CCN(C)Cc2ccccc21 | -6.39
21 | OC(CN1CCN(Cc2cc(F)ccc2F)CC1)C1CC1 (configuration not stated) | 0.724
22 | CC(C)c1nccn1-c1nccnc1C1CCCN1Cc1ccccc1 (configuration not stated) | -6.32
23 | COc1ccccc1OCc1cc(C(=O)N2CCC(NC(C)=O)C2)n[nH]1 (configuration not stated) | 2.49

Row | SMILES | cytotoxicity at 70.5 h [%]
24 | CCCc1n[nH]cc1C(=O)N1CCC(c2nccn2CCOC)CC1 | 19
25 | O=C(c1ncccc1O)N1CCc2c(nc(-c3ccncc3)[nH]c2=O)C1 | 9.03
26 | CCn1ccnc1CN1CCN(CC(O)Cn2cccn2)CC1 (configuration not stated) | -10.4
27 | Cc1ccc(CNC[C@H]2Cn3cc(-c4ccccc4)nc3CO2)cc1 | -4.13
28 | O=C(COc1ccc2c(c1)CCC2)NS(=O)(=O)c1cncc(Br)c1 | -2.54
29 | NC(c1ccccc1)c1ccc(OC(F)F)cc1 (configuration not stated) | 6.42
30 | COc1cc(N2C[C@@H]3COC[C@]3(COc3ncccc3F)C2)ncn1 | -9.91
31 | CCS(=O)(=O)N1C[C@@H](OCc2ccccn2)[C@@H]2OCCC[C@@H]21 | -9.16
32 | CN(Cc1ccccc1)C(=O)CCN1CCC2(CC1)[C@H](O)C[C@@H]2O | -8.64
33 | N#Cc1ccc(C(=O)N(Cc2ccncc2)C2CC2)cc1 | -6.43
34 | CNC(=O)C1(CCCc2cccnc2)CCCCN1 (configuration not stated) | -1.91
35 | Cc1noc(C)c1NS(=O)(=O)c1cc(C(=O)O)cc(Cl)c1Cl | -4.5
36 | O=C(NCCc1cccs1)NC1CCN(c2ncccn2)CC1 | -6.98
37 | CC1CN(CC(=O)Nc2ccncc2)CCN1c1nccs1 (configuration not stated) | -2.52
38 | N#Cc1ccc(N2CCN(c3nccs3)CC2)nc1 | -0.838
39 | CC(C)CN(CC(O)c1ccc(F)cc1)C(=O)c1cc[nH]n1 (configuration not stated) | -3.9
40 | Cc1cc(C2CCCN(CCCNS(C)(=O)=O)C2)n[nH]1 (configuration not stated) | -25.3
41 | O=S(=O)(C1CC1)N1CCC(Cn2cccn2)CC1 | -7.23
42 | CNC(=O)C1(Cc2cc(C(C)C)no2)CCN(Cc2ccccn2)C1 (configuration not stated) | -0.0563
43 | CNC(=O)NC(=O)C(C)N1CCC(c2c[nH]c3ccc(OC)cc23)CC1 (configuration not stated) | -2.98
44 | O=C(NCCC1CC1)NCc1cccc(-n2ccnc2)c1 | -2.8
45 | Cc1nnsc1-c1nnc2sc(C3CCC3)nn12 | -10
46 | COC(=O)[C@H](C)NC(=O)Cc1c(C)nc2cc(=O)[nH]n2c1C | -7.8

Row | SMILES | cytotoxicity at 70.5 h [%]
47 | CCc1noc(CN(C)C(=O)c2ccccc2-c2ncn[nH]2)n1 | -2.67
48 | COC(=O)CN(C(=O)c1ccc(Cl)o1)c1cccc(F)c1 | -11.3
49 | O=C(c1cnccn1)N1CCCC2(CCN(Cc3ccc(F)cc3)C2)C1 (configuration not stated) | -4.76
50 | O=C(CCCn1cncn1)N1CCCC1c1noc(C2CC2)n1 (configuration not stated) | -3.05
51 | Cc1cnc(CN(C)C2CCN(CC(=O)N(C)c3nccs3)C2)o1 (configuration not stated) | 42.1
52 | CC(C)NS(=O)(=O)c1cc(C(=O)O)cc(-c2ccccc2C#N)c1 | 6.18
53 | Cc1nnc(CN(Cc2ccccc2Br)C2CC2)o1 | -8.83
54 | COc1ncccc1C(=O)N1CCCC1c1c(C)n[nH]c1C (configuration not stated) | 37.5
55 | CCC(=O)NC1CCCN(Cn2nc(C(C)(C)C)ccc2=O)C1 (configuration not stated) | -4.43
56 | CCOc1ncccc1NC(=O)N1CCOCC1C (configuration not stated) | -5.63
57 | Cc1nccc(-c2ccccc2)c1C(=O)N1CCC2(CN(C)C(=O)O2)C1 (configuration not stated) | -5.07
58 | NC(=O)N1CCCN(C2CCCCc3ccccc32)CC1 (configuration not stated) | -1.64
59 | O=C(c1ccc[nH]1)N1CCc2cc(S(=O)(=O)N3CCOCC3)ccc2C1 | 50.8
60 | Cc1cccc(CN2Cc3[nH]nc(COc4cccnc4)c3C2)n1 | -3.62
61 | CCc1noc(C)c1C(=O)N1CCC(c2[nH]ncc2S(C)(=O)=O)C1 (configuration not stated) | -4.87
62 | Cc1ncc(S(=O)(=O)Nc2ccnn2C2CCCCC2)[nH]1 | -1.01
63 | O=S(=O)(CCO)Cc1ccc(OCC(F)(F)F)cc1 | -9.29
64 | CCn1ncc2c1C(COCC1CC1)N(C(=O)c1ccncn1)CC2 (configuration not stated) | -11.3
65 | Cn1ncc2c1NC(=O)CC2c1ccc(Cl)cc1Cl (configuration not stated) | -15
66 | NC(=O)C1CCCN(C(=O)c2ccn(-c3ccc(F)cc3)n2)C1 (configuration not stated) | -5.61
67 | Cc1nc2n(n1)CC(NCc1ccnc(-c3ccccc3)n1)CC2 (configuration not stated) | -2.5
68 | COCc1nc2ncc3c(=O)n(-c4cccc(OC)c4)ccc3n2n1 | 27.8
69 | CC(=O)N[C@@H]1CN(S(=O)(=O)Cc2ccccc2)C[C@H]1C(C)C | -0.553

Row | SMILES | cytotoxicity at 70.5 h [%]
70 | CNC(=O)[C@H]1C[C@@H]2CN(c3cc(OC)ncn3)C[C@@H]2N1C(C)C | 15.2
71 | Cc1ccc2oc(=O)n(CCC(=O)N3CCC4(CN(C)C(=O)O4)C3)c2c1 (configuration not stated) | -1.59
72 | CN1Cc2nnc(C3CCOCC3)n2C(Cc2c[nH]cn2)C1 (configuration not stated) | -1.52
73 | Cn1cc(C2(C)CN(C(=O)COc3ccccc3F)CCO2)cn1 (configuration not stated) | -4.09
74 | COc1ncccc1C(=O)N1CCn2c(COCC3CC3)cnc2C1C (configuration not stated) | -0.554
75 | CCOC(=O)N[C@H]1C[C@@H](C(=O)NCCc2cccc(Cl)c2)N(C)C1 | -23.6
76 | Cc1ccc(N2CCCC(NCc3cccc4c3OCCO4)C2)nn1 (configuration not stated) | -4.41
77 | CCNC(=O)C1CN(Cc2c(-c3cc(C)on3)nn(C)c2Cl)CCO1 (configuration not stated) | 2.76
78 | Cc1cnn(CC2CCCN2C(=O)CCc2nc3ccccc3[nH]2)c1 (configuration not stated) | -15.5
79 | Cc1ccccc1CC(=O)N(C)C1CCN(c2ccccn2)CC1 | 25.2
80 | COc1ccc(CCN2CCCC2Cn2nc(C)nc2C)cc1 (configuration not stated) | 17.7
81 | Cc1cnc(C)c(N2CCCC(CC3CC3)(C(=O)O)C2)n1 (configuration not stated) | -4.19
82 | O=C(c1ccco1)N1CCCC12CCN(c1ncccn1)CC2 | -7.14
83 | CCCc1nc(C(C)(C)NC(=O)c2ccnn2C)no1 | -2.57
84 | COC(C)(CNS(=O)(=O)c1cccnc1)c1ccccc1F (configuration not stated) | -18.1
85 | CCCc1nc(N2CCSCC2)c2c(n1)c(C)nn2CC | -13.1
86 | Cc1noc([C@]23COC[C@H]2CN(C(=O)N2CCCC2)C3)n1 | -6.89
87 | Cc1cc(CN(C)C(=O)NC2CCC(O)CC2)no1 (configuration not stated) | -7.4
88 | CCOC(=O)c1n[nH]cc1-c1cncn1CC(C)n1nc(C)cc1C (configuration not stated) | -8.74
89 | CCc1noc(CNc2ccc(C(=O)N3CCCC(C)C3)cc2C)n1 (configuration not stated) | -10.5
90 | CC(C)c1nnsc1CNC(=O)C1CCCN(C(=O)N(C)C)C1 (configuration not stated) | -11.2
91 | COCCN1C(=O)C[C@H]2[C@H]1CCN2Cc1ccc(OC)cc1 | -7.39
92 | O=C1N[C@H]2OCCC[C@H]2[C@H](c2ccccc2C(=O)O)N1 | 13.9

Row | SMILES | cytotoxicity at 70.5 h [%]
93 | Cc1nn(C)cc1C1=NS(=O)(=O)N(C)C(C(=O)Nc2ccc(Cl)cc2)=C1 | 1.32
94 | COc1ccc(CCC(=O)N(C)Cc2c(C)nn(C)c2C)cc1 | 1.57
95 | CCCNCC1(O)CCCN(Cc2cccc(C)c2)C1=O (configuration not stated) | -3.03
96 | Cc1ccc(N2CCCC(NCc3sccc3C)C2)nn1 (configuration not stated) | -7.95
97 | CCc1nnc(SCc2nonc2C)n1C | -11.2
98 | CN1C(=O)CC(N(C)Cc2nc3ccccc3c(=O)[nH]2)C1=O (configuration not stated) | 23.4
99 | Cc1noc(C)c1CN1CCN(Cc2cccnc2)c2ncccc2C1 | -6.13
100 | Cc1nc(C(=O)N2CCN(C(=O)N(C)C)[C@@H]3CS(=O)(=O)C[C@@H]32)cs1 | -5.31
101 | c1cnc2c(c1)cc([C@H]1CCCO1)n2CCN1CCCCC1 | 20.3
102 | CS(=O)(=O)c1ccc(C(O)CN2CCC(c3ccn[nH]3)CC2)cc1 (configuration not stated) | -17.4
103 | CCc1nc(C)c(CN2CCOC(Cc3cccc4ccccc34)C2)[nH]1 (configuration not stated) | -2.51
104 | Cc1cccc(CN2CC[C@H]3C[C@@H](C)O[C@@H]3C2)n1 | 10.9
105 | CC(C)(C)C(O)CN1CCN(CCOCC(F)(F)F)CC1 (configuration not stated) | -9.97
106 | COc1cccc2c1N(Cc1nc3c(cnn3C)c(=O)[nH]1)CCC2 | 22.2
107 | CC(=O)OCC1CCCCN1C(=O)c1ccc(Cn2ccnc2)o1 (configuration not stated) | 22.8
108 | CSc1ncc(CN2C[C@H]3CC[C@@H]2CN(C2CCOCC2)C3)cn1 | -3.4
109 | CC(C)N(C)S(=O)(=O)c1ccc2c(c1)CCN(C(=O)c1cscn1)C2 | -20.3
110 | c1cc(CCN2CCC(c3n[nH]c(C4CC4)n3)CC2)ccn1 | 11.7
111 | O=C(NCC(F)(F)F)C1CCC(=O)N(C2CCCC2)C1 (configuration not stated) | -3.8
112 | CC(CCc1ccccc1F)C(=O)NS(=O)(=O)CC1CC1 (configuration not stated) | -0.115
